Reference: patent US8410145B2, “Insecticidal compounds” (Syngenta Crop Protection LLC, priority 2007, dated 2013)

Columns and labels:
Format in all cases: in vivo
[1] = system: Spodoptera littoralis (Egyptian Cotton Leafworm); assay: Spodoptera littoralis cotton leaf disc spray test; conditions: foliar, 72 h, 200 ppm spray on cotton leaf discs, L1 larvae, mortality, feeding behavior, growth regulation 3 DAT
Text: (§1) Cotton leaf discs were placed on agar in a 24-well microtiter plate and sprayed with test solutions at an application rate of 200 ppm. After drying, the leaf discs were infested with 5 to L1 larvae. The samples were checked for mortality, feeding behavior, and growth regulation 3 days after treatment (DAT). The following compounds gave at least 80% control of Spodoptera littoralis: A1, A2, A3, A4, A6, A9, A10, A11, A12, A13, A14, A15, A16, A19, A20, A22, A23, A25, A26, A27, B1, B2, B3, B5, B6, B7, B8, B9, B11, B12, B13, B15, B16, B18, B19, B20, B21, B22, B24, B26, B27, B28, C1, C2, C3, C4, C5, C6, C7, C8, C9, C10, C12, C13, C16, C19, C20, C21, C22, C23, D1, D2, D3, D4, D5, D6, D7, D8, D9, D10, D11, D12, D13, D14, D15, D16, D17, D18, D19, D20, D21, D22, D23, D24. Heliothis virescens (Tobacco Budworm): Eggs (0-24 h old) were placed in 24-well microtiter plate on artificial diet and treated with test solutions at an application rate of 200 ppm (concentration in well 18 ppm) by pipetting. After an incubation period of 4 days, samples were checked for egg mortality, larval mortality, and growth regulation. The following compounds gave at least 80% control of Heliothis virescens: A1, A2, A3, A4, A13, A15, A17, A19, A20, A22, A23, A25, A26, A28, B1, B2, B3, B5, B6, B7, B9, B11, B13, B15, B18, B19, B20, B21, B25, B26, B27, B28, C1, C2, C3, C4, C5, C6, C7, C8, C9, C10, C12, C14, C16, C17, C19, C20, C21, C22, D1, D2, D3, D4, D5, D6, D7, D8, D9, D10, D11, D12, D13, D14, D15, D16, D17, D18, D19, D20, D21, D22, D23, E1, E2, E3, E4, E5. Plutella xylostella (Diamond Back Moth): 24-well microtiter plate (MTP) with artificial diet was treated with test solutions at an application rate of 200 ppm (concentration in well 18 ppm) by pipetting. After drying, the MTP's were infested with L2 larvae (7-12 per well). After an incubation period of 6 days, samples were checked for larval mortality and growth regulation. The following compounds gave at least 80% control of Plutella xylostella: A1, A3, A4, A10, All, A15, A19, A23, A25, B1, B2, B3, B5, B6, B7, B8, B9, B11, B13, B15, B18, B19, B20, B21, B26, B27, B28, C1, C2, C3, C4, C6, C7, C8, C9, C12, C16, C19, C20, C22, D1, D2, D3, D4, D5, D6, D7, D8, D9, D10, D12, D13, D14, D15, D16, D17, D18, D19, D20, D21, D22, D23, E1, E3, E5. Diabrotica balteata (Corn Root Worm): A 24-well microtiter plate (MTP) with artificial diet was treated with test solutions at an application rate of 200 ppm (concentration in well 18 ppm) by pipetting. After drying, the MTP's were infested with L2 larvae (6-10 per well). After an incubation period of 5 days, samples were checked for larval mortality and growth regulation. The following compounds gave at least 80% control of Diabrotica balteata: A2, A3, A4, A9, A11, A12, A13, A14, A15, A17, A19, A21, A22, A23, A24, A25, A26, B1, B2, B3, B6, B7, B8, B11, B13, B14, B15, B18, B19, B20, B21, B22, B26, B28, C1, C2, C3, C4, C5, C6, C7, C8, C9, C10, C12, C14, C15, C16, C19, C20, C21, C22, C23, C26, D1, D2, D4, D5, D6, D7, D8, D9, D10, D12, D14, D15, D16, D17, D18, D19, D20, D21, D22, D23, E2, E3, E5. Thrips tabaci (Onion Thrips): Sunflower leaf discs were placed on agar in a 24-well microtiter plate and sprayed with test solutions at an application rate of 200 ppm. After drying, the leaf discs were infested with an […] population of mixed ages. After an incubation period of 7 days, samples were checked for mortality. The following compounds gave at least 80% control of Thrips tabaci: B1, B7, B11, B15, B18, B19, B28, D1, D2, D3, D4, D5, D6, D7, D8, D9, D10, D12, D16, D18, D19, D20, D21, D23. Tetranychus urticae (Two-Spotted Spider Mite): Bean leaf discs on agar in 24-well microtiter plates were sprayed with test solutions at an application rate of 200 ppm. After drying, the leaf discs are infested with mite populations of mixed ages. 8 days later, discs are checked for egg mortality, larval mortality, and adult mortality. […]

[2] = system: Heliothis virescens (Tobacco Budworm); assay: Heliothis virescens egg test on artificial diet; conditions: 96 h, 200 ppm (concentration in well 18 ppm), eggs 0-24 h old on artificial diet, egg mortality, larval mortality, growth regulation after 4 days
Text: as §1

[3] = system: Plutella xylostella (Diamond Back Moth); assay: Plutella xylostella larvae test on artificial diet; conditions: 144 h, 200 ppm (concentration in well 18 ppm), L2 larvae, larval mortality and growth regulation after 6 days
Text: as §1

[4] = system: Diabrotica balteata (Corn Root Worm); assay: Diabrotica balteata larvae test on artificial diet; conditions: 120 h, 200 ppm (concentration in well 18 ppm), L2 larvae, larval mortality and growth regulation after 5 days
Text: as §1

[5] = system: Thrips tabaci (Onion Thrips); assay: Thrips tabaci sunflower leaf disc spray test; conditions: foliar, 168 h, 200 ppm spray on sunflower leaf discs, population of mixed ages, mortality after 7 days
Text: as §1

[6] = system: Tetranychus urticae (Two-Spotted Spider Mite); assay: Tetranychus urticae bean leaf disc spray test; conditions: foliar, 192 h, 200 ppm spray on bean leaf discs, mite populations of mixed ages, egg, larval and adult mortality 8 days later
Text: as §1

Measured: pest or weed control at 200 ppm

Cc1ccccc1C(=O)Nc1cc(C2=NOC(c3cc(Cl)cc(Cl)c3)(C(F)(F)F)C2)ccc1C#N (stereo not drawn) [D6]
≥ 80%: all assays above

N#Cc1ccc(C2=NOC(c3cc(Cl)cc(Cl)c3)(C(F)(F)F)C2)cc1NC(=O)c1ccccc1Cl (stereo not drawn) [D7]
≥ 80%: all assays above

N#Cc1ccc(C2=NOC(c3cc(Cl)cc(Cl)c3)(C(F)(F)F)C2)cc1NC(=O)c1ccc([N+](=O)[O-])cc1 (stereo not drawn) [D8]
≥ 80%: all assays above

Cc1ccc(C(=O)Nc2cc(C3=NOC(c4cc(Cl)cc(Cl)c4)(C(F)(F)F)C3)ccc2C#N)cc1 (stereo not drawn) [D9]
≥ 80%: all assays above

N#Cc1ccc(C2=NOC(c3cc(Cl)cc(Cl)c3)(C(F)(F)F)C2)cc1NC(=O)c1ccc(F)cc1 (stereo not drawn) [D18]
≥ 80%: all assays above
